Experimental data: patent US20220251124A1, “3,5-BIS(PHENYL)-1H-HETEROARYL DERIVATIVES AS MEDICAMENTS” (INSTITUTE OF BIOTECHNOLOGY CAS, V.V.I., priority 2019, published 2022)

How the values were obtained:
Type in all cases: cell-based
MCF7 [1] = assay: cell cycle distribution, Vybrant DyeCycle Violet, flow cytometry; settings: 1 μM
Protocol: (§1) In order to define the effect on cellular level, we investigated the effect of compound 1 and 2 at non-cytotoxic concentrations of the drugs (1 μM) on cell cycle. Cells were cultivated with the compounds for 24 and 48 hrs and then stained with Vybrant DyeCycle VioletReady Flow reagent (ThermoFisher Scientific) that binds to DNA and analyzed by Flow cytometry and Kaluza program to define the proportions of G1,S and G2/M phases of cell cycle. It is evident that both compounds lead to accumulation of cells in G1 phase if the cell cycle, which become more prominent at later time points (see Table 12, 13).

MDA-MB-231 [2] = assay: as above; settings: 1 μM
Protocol: as §1

[3] = test system: MDA-MB-231 cells stably transfected with KEIMA; assay: mitophagy induction, KEIMA reporter; settings: 24 hours
Protocol: (§2) The effect of compounds 1 and 2 on mitophagy induction was assessed in MCF7 and MDA-MB-231 cells using the reporter protein KEIMA. The excitation spectra of KEIMA changes according to the mitochondrial pH, having an excitation peak at 440 nm atr pH>6 and at 586 at pH<5, with a second excitation peak remaining constant at 620 nm. Therefore, a decrease in the 440 nm/586 nm fluorescence ratio indicates mitochondrial acidification. MCF7 and MDA-MB-231 cells stably transfected with KEIMA were incubated with compound 1 for 24 hours and their fluorescence at both excitation wavelengths was measured by flow cytometry.

[4] = test system: MCF7 cells stably transfected with KEIMA; assay: mitophagy induction, KEIMA reporter; settings: 24 hours
Protocol: as §2

MCF7 [5] = assay: cellular ROS, DCF-DA probe, flow cytometry; settings: 5 μM
Protocol: (§3) The effect of compound 1 on generation of cellular reactive oxygen species (ROS) was evaluated in MCF7 and MDA-MB-231 cells using a cell permeable ROS probe 2′,7′-dichlorodihydrofluorescein diacetate (DCF-DA; Sigma-Aldrich) that measures several reactive species and becomes fluorescent upon oxidation. Cells treated with compound 1 or compound 2 (5 μM) for the described time interval were stained with the probe and then analyzed via Flow cytometry.

MDA-MB-231 [6] = assay: cellular ROS, DCF-DA probe, flow cytometry; settings: 5 μM
Protocol: as §3

cancer cell lines = assay: crystal violet assay, cancer cell lines overall; settings: as seen in previous tables
Protocol: Compound 1 and a comparative compound deferasirox (DFX) were tested in their efficacy to kill/suppress proliferation of malignant breast cancer MCF7 cells representing estrogen-dependent type of breast cancer. Briefly, 10.000 cells per well were seeded in a 96-well plate on one day and the next day the tested compounds were added and incubated with the cells for 48 hrs. The cells were then fixed with 4% paraformaldehyde, stained with 0.05% crystal violet, washed with PBS, and solubilized in 1% SDS. The absorbance of the plate at 595 nm was then measured, quantifying the number of viable cells.

MCF7 cells = assay: real time monitoring of cell confluence via Juli FL; settings: 30 nM
Protocol: We also tested the ability of compound 1 to suppress proliferation of cancer cells by an alternative approach via the real time monitoring with a cellular analyser Juli F L. In brief, MCF7 cells were seeded in a 6-well plate the day before to reach approximately 5% confluence on the following day. Next day, the camera of the instrument was focused on a particular field with approximately 5% confluence and cells were continuously monitored, recording the confluence and visual appearance every 30 minutes for 48 hrs. Values were then expressed either as simple confluence at the end of the experiment or as slope of the line representing the confluence during a given period of time (Table 5).

## O=C(NCCCCCCCCCC[P+](c1ccccc1)(c1ccccc1)c1ccccc1)c1ccc(-n2nc(-c3ccccc3O)nc2-c2ccccc2O)cc1 [Compound 1, (10-(4-(3,5-bis(2-hydroxyphenyl)-1H-1,2,4-triazol-1-yl)benzamido)decyl) triphenylphosphonium Chloride]
MCF7 [1]; 24 hrs
  proportion of cells in G1: 82.8 (1.6)
  proportion of cells in G2: 13.2
  proportion of cells in S: 4.0
MCF7 [1]; 48 hrs
  proportion of cells in G1: 75.8 (2.1)
  proportion of cells in G2: 12.4 (2.5)
  proportion of cells in S: 11.9 (2.3)
MDA-MB-231 [2]; 24 hrs
  proportion of cells in G1: 64.6 (2.0)
  proportion of cells in G2: 27.7 (2.3)
  proportion of cells in S: 7.7
MDA-MB-231 [2]; 48 hrs
  proportion of cells in G1: 65.0 (4.1)
  proportion of cells in G2: 25.2 (3.3)
  proportion of cells in S: 9.8
[3]; 1.5 μM
  KEIMA 440 nm/586 nm fluorescence ratio: 0.81 (0.02)
[3]; 2.5 μM
  KEIMA 440 nm/586 nm fluorescence ratio: 0.81 (0.03)
[3]; 5 μM
  KEIMA 440 nm/586 nm fluorescence ratio: 0.76 (0.10)
[3]; 10 μM
  KEIMA 440 nm/586 nm fluorescence ratio: 0.50 (0.04)
[4]; 1.5 μM
  KEIMA 440 nm/586 nm fluorescence ratio: 1.01 (0.14)
[4]; 2.5 μM
  KEIMA 440 nm/586 nm fluorescence ratio: 0.99 (0.13)
[4]; 5 μM
  KEIMA 440 nm/586 nm fluorescence ratio: 0.86 (0.15)
[4]; 10 μM
  KEIMA 440 nm/586 nm fluorescence ratio: 0.71 (0.25)
MCF7 [5]; 5 min, MCF7 (0 min = 100)
  DCF-DA mean fluorescence: 161.3 (29.8)
MCF7 [5]; 10 min, MCF7
  DCF-DA mean fluorescence: 172.0 (18.9)
MCF7 [5]; 15 min, MCF7
  DCF-DA mean fluorescence: 283.8 (36.6)
MCF7 [5]; 30 min, MCF7
  DCF-DA mean fluorescence: 857.2 (299.0)
MCF7 [5]; 60 min, MCF7
  DCF-DA mean fluorescence: 1435.0 (452.9)
MDA-MB-231 [6]; 5 min, MDA-MB-231 (0 min = 100)
  DCF-DA mean fluorescence: 129.9 (17.4)
MDA-MB-231 [6]; 10 min, MDA-MB-231
  DCF-DA mean fluorescence: 207.8 (94.2)
MDA-MB-231 [6]; 15 min, MDA-MB-231
  DCF-DA mean fluorescence: 258.3 (71.2)
MDA-MB-231 [6]; 30 min, MDA-MB-231
  DCF-DA mean fluorescence: 437.5 (105.9)
MDA-MB-231 [6]; 60 min, MDA-MB-231
  DCF-DA mean fluorescence: 529.5 (176.1)
Cancer cell lines
  efficacy against cancer cell lines: 10 to 100 nM
MCF7 cells; MCF7
  effect on cellular proliferation: significant inhibition of cellular proliferation
MCF7 cells; MCF7, 48 hrs
  Final % confluence: 15.01 (3.4) %
MCF7 cells; MCF7, Juli FL
  Slope 0-22 h (confluence versus time): 0.258 (0.005)
  Slope 22-48 h (confluence versus time): 0.404 (0.005)
